One test concerns U-87 MG cells. In words: Cell viability assay (MTT), CPT-11 after adenoviral infection. The class given is cell-based. The note with it: Homo sapiens, 48 h. How it is done:
(§1) Cell cycle analysis. The DNA content was measured in samples of 10^6 cells that had been infected with 10 MOIs of Delta-24 or UVi Delta-24 or had been mock infected. Forty-eight hours later, cultures were treated with CPT-11 (4 μmol/L) or vehicle. Cells were trypsinized 3 to 5 days after drug treatment, fixed in 70% ice-cold ethanol, and incubated with propidium iodide (5 μg/mL) and RNase A (1 μg/mL) for 20 minutes at 37° C. All DNA content measurements were done with an EPICS XL-MCL cytometer (Coulter Corp., Hialeah, Fla.) equipped with an air-cooled argon ion laser emitting 488 nm at 15 mW. A multicycle program (Phoenix Flow System; Phoenix Controls Corp., San Diego, Calif.) was used for data analysis. Cell viability assays. The chemosensitivity of the treated glioma cells was assessed by using the tetrazolium salt 3-(4,5-dimethylthiazol-2-yl)-2,5-diphenyltetrazolium bromide (Sigma-Aldrich) to measure cell viability. For this assay, 2×10^3 cells per well were seeded in 96-well microtiter plates and infected 24 hours later with Delta-24 (at 1, 2.5, 5, or 10 MOs) or Uvi Delta-24 (10 MOs) or were mock infected. Forty-eight hours after adenoviral treatment, the cells were treated with various concentrations of CPT-11. Triplicate wells were used for each condition. Sixteen wells seeded with untreated glioma cells were used as a viability control, and 16 wells containing only complete medium were used as a control for nonspecific dye reduction. Medium was removed 72 hours after drug treatment, and 100 μL 3-(4,5-dimethylthiazol-2-yl)-2,5-diphenyltetrazolium bromide solution (1 mg/mL) was added to each well. The plates were then incubated for an additional 4 hours and then read on a Spectramax 190 microplate reader (Molecular Devices, Sunnyvale, Calif.) at a test wavelength of 570 nm.

The next test concerns U-251 MG cells. The description is as above. The class given is cell-based. The note with it: Homo sapiens, U-251, 48 h, CPT-11 added 48 hours later. The procedure: as §1
Test [1] has as its system U-87 MG and U-251 MG human glioma cells. Kind of test: Cell cycle analysis (DNA content, flow cytometry), Delta-24 and CPT-11. Conditions: CPT-11 4 μmol/L, alone or 48 hours after 10 MOIs Delta-24. The class given is cell-based. How it is done:
as §1, with “Forty-eight hours after adenoviral treatment, the cells were treated with various concentrations of CPT-11. Triplicate wells were used for each condition. Sixteen wells seeded with untreated glioma cells were used as a viability control, and 16 wells containing only complete medium were used as a control for nonspecific dye reduction. Medium was removed 72 hours after drug treatment, and 100 μL 3-(4,5-dimethylthiazol-2-yl)-2,5-diphenyltetrazolium bromide solution (1 mg/mL) was added to each well.” left out
On the technique in general: A flow cytometer gives signals particle by particle.

Test [2] concerns U-87 MG human glioma xenograft. In words: Intracranial human glioma xenograft, Delta-24/CPT-11 sequential treatment. The note with it: Delta-24 1.5×10^8 viral particles intratumoral day 3; CPT-11 5 mg/kg i.p. days 7, 12, 20; control median survival 27 days. The class given is in vivo, athymic mice. The procedure:
Animal model. To assess the potential therapeutic relevance of the findings from the in vitro studies, we tested the Delta-24/CPT-11 sequential treatment in an in vivo model of a human glioma xenograft implanted intracranially. The U-87 MG cell line was selected as an exemplary cell line because it produces gliomas in nude mice with highly predictable growth kinetics and well-characterized pathologic features (Lal et al., 2000). To perform a reliable multiple-dose experiment, an implantable guide-screw system was developed that allows for multiple, precise intratumoral administrations of a therapeutic agent(s) (Lal et al., 2000) and has been validated for testing the antiglioma effect of Delta-24 (Fueyo et al., 2003). In this study, 5×10^5 cells of the U-87 MG human glioma cell line were engrafted in the caudate nucleus of athymic mice (Harlan- Sprague-Dawley, Inc., Indianapolis, Ind.). On day 3 after cell implantation, animals were treated with a single intratumoral injection of Delta-24 or UVi Delta-24 (1.5×10^8 viral particles in 5 μL). […] H&E-stained slides were analyzed for evidence of tumor, necrosis, and viral nuclear inclusions. […]
Statistical analyses. […] The in vivo anticancer effect of different treatments was assessed by plotting survival curves according to the Kaplan-Meier method, and groups were compared using the log-rank test.
A general note: In xenograft studies the graft and the host belong to different species.

Test [3] relates to U-87 MG and U-251 MG glioma cells. Kind of test: Cell viability assay (MTT), CPT-11 and Delta-24, results stated for both cell lines. It is filed as cell-based, human. The procedure: as §1, with “For this assay, 2×10^3 cells per well were seeded in 96-well microtiter plates and infected 24 hours later with Delta-24 (at 1, 2.5, 5, or 10 MOs) or Uvi Delta-24 (10 MOs) or were mock infected.” left out, “Sixteen wells seeded with untreated glioma cells were used as a viability control, and 16 wells containing only complete medium were used as a control for nonspecific dye reduction. Medium was removed 72 hours after drug treatment, and 100 μL 3-(4,5-dimethylthiazol-2-yl)-2,5-diphenyltetrazolium bromide solution (1 mg/mL) was added to each well.” left out

A further test has as its system U-87 MG cell line. In words: In vitro combination of ICOVIR-5 with TMZ or RAD001. The class given is cell-based, human.
For the next test, the system named is U87-MG xenografts. Kind of test: Intracranial glioma xenograft, ICOVIR-5 in combination with RAD001 or TMZ. The class given is in vivo, athymic mice. The note with it: ICOVIR-5 3×10^7 pfu/mouse intratumoral day 3, 5, 7; RAD001 5 mg/kg/d; TMZ 7.5 mg/kg/5 days; control 30.5 days. How it is done: Animal Studies. U87 MG human glioma cells (5×10^5) were engrafted into the caudate nucleus of athymic mice using a guide-screw system, as previously described (Lal, 2000). The inventors performed three independent experiments using 10 animals per group in each experiment. On days 3, 5, and 7 after implantation of tumor cells, animals were treated with 5 μl intratumoral injections of ICOVIR-5, PBS or adenovirus control (all 3×10^8 pfu/ml). Animals showing general or local symptoms of toxicity were killed. Surviving animals were killed 140 days after tumor implantation. Brains were then removed, fixed in 4% formaldehyde for 24 hours at room temperature, and embedded in paraffin. Hematoxylin-and-eosin-stained sections were evaluated for evidence of tumor, necrosis, and viral nuclear inclusions. The largest (a) and the smallest (b) diameters of the tumors were measures, and these measurements were used in the calculation of tumor volume using the formula a×b2×0.4 (Attia, 1966). […]
Statistical Analysis. […] Data are expressed as mean±SD or 95% confidence intervals (CIs). The in vivo cytopathic effect of ICOVIR-5 on human glioma xenografts was assessed by plotting survival curves according to the Kaplan-Meier method. […]

The source of these data is US20070292396A1, “COMBINATION THERAPY WITH ONCOLYTIC ADENOVIRUS” (priority 2006, published 2007).

Where two headings read alike, the source gives them in different places.

As for `CCc1c2c(nc3ccc(OC(=O)N4CCC(N5CCCCC5)CC4)cc13)-c1cc3c(c(=O)n1C2)COC(=O)[C@]3(O)CC` [CPT-11, irinotecan], the IC50 in the test with U-87 MG cells (read-out: IC50 dose of CPT-11, U-87 MG cells infected with Delta-24 at 10 MOIs, CPT-11 added 48 hours later) stood at 1500 nM; in the test with U-87 MG cells (read-out: IC50 dose of CPT-11, U-87 MG cells infected with UVi Delta-24, CPT-11 added 48 hours later), 3400 nM; with U-251 MG cells (read-out: IC50 dose of CPT-11, U-251 MG cells infected with Delta-24 at 10 MOIs) it was 1000 nM; in the test with U-251 MG cells (read-out: IC50 dose of CPT-11, UVi Delta-24-infected U-251 MG cells) it was 7200 nM; in test [3] (Homo sapiens, read-out: IC50 for CPT-11, both U-87 MG and U-251 MG cells infected with 2 MOIs of Delta-24), 2500 nM. In addition, the “cells in the G2-M phase” value in test [1] is listed as > 55 % of the cells in culture. Further, the “extension of survival (average) over control” value in test [2] is reported as 4 days. Besides, the “inhibition of cell proliferation” value in test [3] (both cell lines, CPT-11 alone) is given as “inhibited cell proliferation in a concentration dependent fashion”.
Turning to `CO[C@H]1C[C@@H]2CC[C@@H](C)[C@@](O)(O2)C(=O)C(=O)N2CCCC[C@H]2C(=O)O[C@H]([C@H](C)C[C@@H]2CC[C@@H](OCCO)[C@H](OC)C2)CC(=O)[C@H](C)/C=C(\C)[C@@H](O)[C@@H](OC)C(=O)[C@H](C)C[C@H](C)/C=C/C=C/C=C/1C` [RAD001], in the test on U-87 MG cell line, the “effect of drug on adenoviral replication in vitro (fiber expression, western blot and RT-QT-PCR)” value was “neither RAD001 nor TMZ suppressed adenoviral replication in vitro”. For the same compound, the mean survival in the test on U87-MG xenografts came out at 49 days.
For the compound `Cn1nnc2c(C(N)=O)ncn2c1=O` [TMZ, temozolomide], in the test with U87-MG xenografts, the mean survival came to 35.5 days.
